Measured values from patent US20090053290A1, “TRANSDERMAL DRUG DELIVERY COMPOSITIONS AND TOPICAL COMPOSITIONS FOR APPLICATION ON THE SKIN” (priority 2006, published 2009).

Legend:
[1] = test system: bovine tendon; test: Melting temperature measurement of fixed tissue (cross-linking), tendon; conditions: 48 hours; PA 0.5% in PBS, GA 0.625% in PBS; n = 3; in °C
Experimental: (§1) The fixed tissues and fresh tissues were assayed for their melting temperature by heating tissue strips (1×2 cm^2, n=3). The melting temperature was recorded when tissues started to shrink.

[2] = test system: bovine pericardium; test: Melting temperature measurement of fixed tissue (cross-linking), pericardium; conditions: 48 hours; PA 0.5% in PBS, GA 0.625% in PBS; n = 3; in °C
Experimental: as §1

[3] = test system: collagenase; assay type: biochemical
Experimental: Tissue integrity was checked at the end of the incubation using a standard histological method (hematoxylin-eosin (H&E)). […] At predetermined intervals, 1.0 mL of solution was taken out and filtered through a 0.45-μM cellulose filter to separate solubilized collagen from insolubilized matrix. The amount of solubilized collagen was determined after total acid hydrolysis in 6N HCl for 24 hours at 100° C. by measuring hydroxyproline. The results are expressed as a percentage of the total collagen solubilized.

[4] = test system: human skin fibroblasts; test: Cell proliferation and collagen synthesis of fibroblasts cultured on treated pericardium; assay type: cell-based; conditions: p<0.005 for treated pericardium, FIG. 9
Experimental: Discs, 15 mm in diameter, were punched out from PA-treated bovine pericardium and inserted into the bottom of 24-well plates. After washing and equilibrating with PBS, human skin fibroblasts (8×10^4/well, third passage kindly provided by Dr. Warren Garner, University of Southern California) were placed on top of the tissues. After 48 hours of culture in 10% FBS/DMEM, the medium was changed to a labeling medium ([^3H]thymidine, 10 μCi/mL, 0.5% FBS/DMEM) followed by a 24 hour labeling period. Cell proliferation was assayed and collagen synthesis recorded as [^3H]OH-proline incorporation in a culture medium containing 25 μg/mL ascorbic acid, 25 μg/mL β-APN and 25 μCi/mL [^3H]proline in 0.5% FBS/DMEM after labeling for 48 hours.

[5] = test system: Fischer 344 rats
Text: Three-week-old Fischer 344 rats were obtained from Harlan Sprague Dawley, Inc. (Indianapolis, Ind.). NIH and University of Southern California IACUC guidelines for the care and use of laboratory animals were observed. […] The samples were retrieved after 3 and 6 weeks post-operation, and samples were processed for H&E and von Kossa staining, the latter to determine the extent of calcification.

[6] = test system: NIH 3T3 cells; conditions: mouse, 72 h
Experimental: NIH 3T3 cells were used in these studies. Cells were cultured in 24-well plates at a density of 5×10^6 cells/well in 10% FBS/DMEM overnight. […] Cells were incubated for 72 hours before cell counting and morphological studies.

[7] = test system: onychomycosis; conditions: nail lacquer, topical; cited from earlier work
[8] = in vivo; cited from earlier work
[9] = in vivo; cited from earlier work; remark: listed apart in the source

## O=CCCCC=O [GA, glutaraldehyde]
[1]
  Melting temperature, tendon: 84 ± 1.0
[2]
  Melting temperature, pericardium: 94 ± 1.5
[3]
  collagen fibril structure after 24 hours of collagenase digestion (H&E): remained intact
[4]
  collagen synthesis / deposition (hydroxyproline incorporation): inhibit collagen synthesis
[5]; periods ranging from 3 and 6 weeks
  degradation of fixed tissue after subcutaneous implantation (summary): no apparent degradation
[5]; rat, in vivo, sc
  calcification of implant (Von Kossa staining): dystrophic calcification
[5]; subcutaneous
  implant degradation, six weeks postoperatively: still intact
  implant integrity, three weeks postoperatively: retained their integrity
[5]; subcutaneous, treated pericardium, H&E
  tissue reaction to implant, one week postoperatively: lesser inflammatory reaction
[6]
  concentration above which cells could not survive: greater than 0.6 μg/mL
  concentration at which cytotoxicity was observed: ≤ 600 ng/mL

## Cc1cc(C2CCCCC2)n(O)c(=O)c1 [Ciclopirox]
[7]
  cure rate: < 10%

## CC(=O)Oc1ccccc1C(=O)O [Aspirin, aspirin]
[8]
  period of inhibition of blood clotting: 4 to 7 days

## CC1=C(/C=C/C(C)=C/C=C/C(C)=C/C(=O)O)C(C)(C)CCC1 [tretinoin, All-trans-retinoic acid]
[9]
  absorption: less than 2%
